Assay results published in patent publication US4599333A, “Hydrazinopyridazine compound, process for production thereof, and use thereof as medicament” (Teikoku Hormone Mfg. Co., Ltd., priority 1984, dated 1986).

Experiments:
Format in all cases: in vivo, male Wistar rats
β1-adrenoceptors = biological target: T1, β1-adrenoceptors (Rattus norvegicus, UniProt P18090); test: β1-adrenoceptor blocking action (inhibition of increase in heart rate exerted by isoproterenol) and selectivity for β1-adrenoceptors; details: blocking activity ratio from ID50 doses; Table 2
T1 construct: Experiments were done using male Wistar rats; from tissue; host or cells: whole anesthetized male Wistar rat (in vivo; heart rate)
T1 sequence (P18090 whole entry): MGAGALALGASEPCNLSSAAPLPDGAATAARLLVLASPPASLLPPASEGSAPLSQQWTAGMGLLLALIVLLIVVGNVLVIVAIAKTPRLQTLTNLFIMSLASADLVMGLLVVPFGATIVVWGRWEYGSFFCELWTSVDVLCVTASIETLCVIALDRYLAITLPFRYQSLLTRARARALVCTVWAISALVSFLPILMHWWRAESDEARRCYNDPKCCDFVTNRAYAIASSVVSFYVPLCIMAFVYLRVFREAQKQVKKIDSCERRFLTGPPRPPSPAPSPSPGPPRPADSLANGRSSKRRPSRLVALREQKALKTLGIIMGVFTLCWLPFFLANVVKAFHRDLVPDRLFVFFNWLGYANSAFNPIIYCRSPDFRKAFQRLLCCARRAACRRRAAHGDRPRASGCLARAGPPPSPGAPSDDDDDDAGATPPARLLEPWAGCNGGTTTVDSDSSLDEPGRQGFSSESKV
Method: (§1) Experiments were done using male Wistar rats weighing between 300 and 400 g, anesthetized with sodium pentobarbital (60 mg/kg i.p.). The blood pressure was directly measured by connecting a cannula inserted in the femoral artery to a pressure transducer and the heart rate was calculated from the pulse waves of the blood pressure tracings. Each value shown here was obtained from three animals. The test compounds were individually dissolved in physiological saline solution or a 0.01N aqueous solution of hydrochloric acid.
(§2) (1) Measurement of β-adrenoceptor blocking activity
The increased heart rate before injection of the test compound was represented by H1. Three minutes after i.v. injection of the test compound, isoproterenol (0.1 μg/kg i.v.) was again administered and then the change in heart rate was measured. The maximum increase in heart rate after injection of the test compound was designated as H2. From these values, the percent inhibition of the change in heart rate was calculated in accordance with the following equation.
(§3) By repeating the procedure mentioned above at various doses of the test compounds, dose-response curves were prepared.

β2 = biological target: T2, β2 (Rattus norvegicus, UniProt P10608); test: β2-adrenoceptor blocking action (inhibition of fall in blood pressure exerted by isoproterenol); details: iv, 50% inhibition of fall in blood pressure by isoproterenol 0.1 μg/kg i.v., Table 2, read-out: β-adrenoceptor blocking action ID50 β2
T2 construct: Experiments were done using male Wistar rats; from tissue; host or cells: whole anesthetized male Wistar rat (in vivo; arterial blood pressure)
T2 sequence (P10608 whole entry): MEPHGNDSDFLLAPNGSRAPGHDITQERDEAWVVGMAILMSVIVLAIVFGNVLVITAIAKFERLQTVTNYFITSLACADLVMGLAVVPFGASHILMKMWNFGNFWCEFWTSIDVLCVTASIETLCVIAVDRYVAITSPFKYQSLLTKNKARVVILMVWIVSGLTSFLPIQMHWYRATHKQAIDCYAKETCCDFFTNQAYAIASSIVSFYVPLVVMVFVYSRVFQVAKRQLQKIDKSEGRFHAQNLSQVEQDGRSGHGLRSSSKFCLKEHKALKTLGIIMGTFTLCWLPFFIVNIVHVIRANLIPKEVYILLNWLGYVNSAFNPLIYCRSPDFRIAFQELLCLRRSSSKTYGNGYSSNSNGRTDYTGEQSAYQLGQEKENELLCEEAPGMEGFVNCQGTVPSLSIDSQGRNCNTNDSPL
Method: as §1, §2, §3

heart rate = test: Heart rate increase produced by isoproterenol; details: single i.v. injection 0.1 μg/kg, before test compound
Method: Experiments were done using male Wistar rats weighing between 300 and 400 g, anesthetized with sodium pentobarbital (60 mg/kg i.p.). The blood pressure was directly measured by connecting a cannula inserted in the femoral artery to a pressure transducer and the heart rate was calculated from the pulse waves of the blood pressure tracings. Each value shown here was obtained from three animals. The test compounds were individually dissolved in physiological saline solution or a 0.01N aqueous solution of hydrochloric acid. A single intravenous (i.v.) injection of isoproternol (0.1 μg/kg) produced an increase in heart rate by approximately 90 beats/min. The increased heart rate before injection of the test compound was represented by H1. Three minutes after i.v. injection of the test compound, isoproterenol (0.1 μg/kg i.v.) was again administered and then the change in heart rate was measured. The maximum increase in heart rate after injection of the test compound was designated as H2. From these values, the percent inhibition of the change in heart rate was calculated in accordance with the following equation.

Question: Which results are given for `Cc1ccc(C#N)c(OCC(O)CNC(C)(C)COc2ccc(NN)nn2)c1` (stereo not drawn) [K, 1-(2-cyano-5-methylphenoxy)-3-[1,1-dimethyl-2-(3-hydrazino-6-pyridazinyloxy)ethylamino]-2-propanol]?
Answer: Selectivity for β1-adrenoceptors (β1/β2) (β1-adrenoceptors): 2; ED50 (β2): 0.1 mg/kg

Question: Which “Selectivity for β1-adrenoceptors (β1/β2)” value (β1-adrenoceptors) does the source give for `C#Cc1ccccc1OCC(O)CNC(C)(C)COc1ccc(NN)nn1` (stereo not drawn) [R, 1-(2-ethinylphenoxy)-3-[1,1-dimethyl-2-(3-hydrazino-6-pyridazinyloxy)ethylamino]-2-propanol] here?
Answer: > 5

Question: With `CC(C)(COc1ccc(NN)nn1)NCC(O)COc1ccccc1Cl` (stereo not drawn) [B, 1-(2-chlorophenoxy)-3-[1,1-dimethyl-2-(3-hydrazino-6-pyridazinyloxy)ethylamino]-2-propanol] as the molecule, how does the “Selectivity for β1-adrenoceptors (β1/β2)” value (β1-adrenoceptors) read?
Answer: 29

Question: And the ED50 (β2)?
Answer: 0.23 mg/kg

Question: For `CC(C)NCC(O)COc1ccc(CC(N)=O)cc1` (stereo not drawn) [Atenolol, reference compound], which “Selectivity for β1-adrenoceptors (β1/β2)” value (β1-adrenoceptors) is on record?
Answer: 30

Question: And the ED50 (β2)?
Answer: 1.5 mg/kg

Question: Which “increase in heart rate” value (heart rate) does the source give for `CC(C)NCC(O)c1ccc(O)c(O)c1` (stereo not drawn) [isoproternol, isoproterenol] here?
Answer: approximately 90 beats/min

Question: Which results are given for `CC(C)(COc1ccc(NN)nn1)NCC(O)COc1ccccc1C#N` (stereo not drawn) [Compound I, 1-(2-cyanophenoxy)-3-[1,1-dimethyl-2-(3-hydrazino-6-pyridazinyloxy)ethylamino]-2-propanol]?
Answer: Selectivity for β1-adrenoceptors (β1/β2) (β1-adrenoceptors): 5; ED50 (β2): 0.1 mg/kg

Question: For `Cc1ccccc1OCC(O)CNC(C)(C)COc1ccc(NN)nn1` (stereo not drawn) [C, 1-(2-methylphenoxy)-3-[1,1-dimethyl-2-(3-hydrazino-6-pyridazinyloxy)ethylamino]-2-propanol], which “Selectivity for β1-adrenoceptors (β1/β2)” value (β1-adrenoceptors) is on record?
Answer: 30

Question: And the ED50 (β2)?
Answer: 0.45 mg/kg
